The record followed here is patent US9914730B2, “Azaquinazoline inhibitors of Atypical protein Kinase C” (Ignyta, Inc., priority 2012, dated 2018).

The structures appear in SMILES notation. Where only a bound is given, the exact number is not on record here.

In general, IC50 refers to the concentration that inhibits the measured activity by half.

In this assay the target is T1, full-length human PKCι (Homo sapiens, UniProt P41743).
T1 construct: Recombinant, full-length human PKCι expressed in Sf21 insect cells is also commercially available; purchased; host or cells: Sf21 insect cells
T1 sequence (P41743 1-596): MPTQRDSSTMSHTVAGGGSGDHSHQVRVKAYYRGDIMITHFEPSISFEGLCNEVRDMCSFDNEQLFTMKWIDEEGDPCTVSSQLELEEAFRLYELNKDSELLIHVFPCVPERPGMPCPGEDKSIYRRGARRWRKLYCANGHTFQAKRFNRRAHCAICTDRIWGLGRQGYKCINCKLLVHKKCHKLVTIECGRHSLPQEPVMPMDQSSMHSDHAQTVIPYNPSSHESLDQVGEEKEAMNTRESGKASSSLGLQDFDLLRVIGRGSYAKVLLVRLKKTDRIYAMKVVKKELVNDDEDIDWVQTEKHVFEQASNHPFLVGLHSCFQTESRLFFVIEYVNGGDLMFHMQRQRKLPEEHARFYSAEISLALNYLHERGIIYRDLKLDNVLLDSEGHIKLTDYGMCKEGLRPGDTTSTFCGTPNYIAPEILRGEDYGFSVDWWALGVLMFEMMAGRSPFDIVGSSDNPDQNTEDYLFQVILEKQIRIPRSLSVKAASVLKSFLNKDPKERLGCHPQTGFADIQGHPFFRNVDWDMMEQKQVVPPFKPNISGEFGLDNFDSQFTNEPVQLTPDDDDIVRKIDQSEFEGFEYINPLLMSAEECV
Kind of assay: PKCι IC50 IMAP assay, full-length PKCι at 150 μM ATP. Type of assay: biochemical. Conditions: read-out: IC50 in IMAP assay against full length PKCi at 150 μM ATP. Summed up: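 Compounds in 4% final DMSO are mixed with Sf21-derived full-length human PKCι (typically 15 pM) and 100 nM FAM-labelled pseudosubstrate peptide, then started with 150 μM ATP. Reaction runs 60 min at room temperature, is quenched with IMAP development reagent for 2 h, and fluorescence polarisation is measured to derive IC50.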
Take `N[C@H](CNc1nc(-c2ccncc2)nc2c(Nc3cccc(Cl)c3)nccc12)Cc1ccccc1` [Example 125, 4-N-[(2S)-2-amino-3-phenylpropyl]-8-N-(3-chlorophenyl)-2-(pyridin-4-yl)pyrido[3,4-d]pyrimidine-4,8-diamine]: the IC50 was 1000 to 10000 nM.

`N[C@H](CNc1nc(-c2ccncc2)nc2c(Nc3nc[nH]n3)nccc12)Cc1ccccc1` [Example 126, 4-N-[(2S)-2-amino-3-phenylpropyl]-2-(pyridin-4-yl)-8-N-(1H-1,2,4-triazol-3-yl)pyrido[3,4-d]pyrimidine-4,8-diamine]: the concentration for half-maximal inhibition (IC50) is 100 to 1000 nM.

For the molecule `CN1CCN(c2nccc3c(NC[C@H](N)Cc4ccccc4)nc(-c4ccncc4)nc23)CC1` [Example 127, (R)—N^1-[8-(4-Methyl-piperazin-1-yl)-2-pyridin-4-yl-pyrido[3,4-d]pyrimidin-4-yl]-3-phenyl-propane-1,2-diamine], the IC50 lay in the range of 10000 to 40000 nM.

As to `N[C@@H](CNc1nc(-c2ccncc2)nc2c(Sc3ccccc3)nccc12)Cc1ccccc1` [Example 128, (R)-3-Phenyl-N^1-(8-phenylsulfanyl-2-pyridin-4-yl-pyrido[3,4-d]pyrimidin-4-yl)-propane-1,2-diamine], the IC50 lay within 1000 to 10000 nM.

In the case of `N[C@H](CNc1nc(-c2ccncc2)nc2c(Oc3ccccc3)nccc12)Cc1ccccc1` [Example 129, N-[(2S)-2-amino-3-phenylpropyl]-8-phenoxy-2-(pyridin-4-yl)pyrido[3,4-d]pyrimidin-4-amine], the IC50 is 100 to 1000 nM.

Consider `CSc1nccc2c(NC[C@@H](N)Cc3ccccc3)nc(-c3ccncc3)nc12` [Example 130, N-[(2S)-2-amino-3-phenylpropyl]-8-(methylsulfanyl)-2-(pyridin-4-yl)pyrido[3,4-d]pyrimidin-4-amine], for which the IC50 fell in the range of 1000 to 10000 nM.

With `Clc1cncc2nc(-c3ccncc3)nc(N3CCNCC3)c12` [Example 132, 5-Chloro-4-piperazin-1-yl-2-pyridin-4-yl-pyrido[3,4-d]pyrimidine], the IC50 was under 100 nM.

As to `Brc1cncc2nc(-c3ccncc3)nc(N3CCNCC3)c12` [Example 133, 1-[5-bromo-2-(pyridin-4-yl)pyrido[3,4-d]pyrimidin-4-yl]piperazine], the IC50 is under 100 nM.

In the case of `Clc1ncc(Cl)c2c(N3CCNCC3)nc(-c3ccncc3)nc12` [Example 134, 1-[5,8-dichloro-2-(pyridin-4-yl)pyrido[3,4-d]pyrimidin-4-yl]piperazine], the IC50 was under 100 nM.

For the molecule `CCCCc1cncc2nc(-c3ccncc3)nc(N3CCNCC3)c12` [Example 135, 5-Butyl-4-piperazin-1-yl-2-pyridin-4-yl-pyrido[3,4-d]pyrimidine], the IC50 was under 100 nM.

With `CCc1cncc2nc(-c3ccncc3)nc(N3CCNCC3)c12` [Example 136, 1-[5-ethyl-2-(pyridin-4-yl)pyrido[3,4-d]pyrimidin-4-yl]piperazine], the IC50 is under 100 nM.

Regarding `CCc1cncc2nc(-c3ccncc3)nc(NC[C@@H](N)Cc3ccccc3)c12` [Example 137, N-[(2S)-2-amino-3-phenylpropyl]-5-ethyl-2-(pyridin-4-yl)pyrido[3,4-d]pyrimidin-4-amine], the IC50 was under 100 nM.

For the molecule `Cc1cncc2nc(-c3ccncc3)nc(N3CCNCC3)c12` [Example 138, 1-[5-methyl-2-(pyridin-4-yl)pyrido[3,4-d]pyrimidin-4-yl]piperazine], the IC50 is under 100 nM.

As for `c1cc(-c2nc(N3CCNCC3)c3c(C4CC4)cncc3n2)ccn1` [Example 139, 1-[5-cyclopropyl-2-(pyridin-4-yl)pyrido[3,4-d]pyrimidin-4-yl]piperazine], the IC50 was under 100 nM.

On to `c1ccc(COCc2cncc3nc(-c4ccncc4)nc(N4CCNCC4)c23)cc1` [Example 140, 1-{5-[(benzyloxy)methyl]-2-(pyridin-4-yl)pyrido[3,4-d]pyrimidin-4-yl}piperazine], for which the IC50 is 100 to 1000 nM.

Consider `Clc1cnc(-c2cc[nH]n2)c2nc(-c3ccncc3)nc(N3CCNCC3)c12` [Example 141, 5-Chloro-4-piperazin-1-yl-8-(1H-pyrazol-3-yl)-2-pyridin-4-yl-pyrido[3,4d]pyrimidine], for which the IC50 lay within 100 to 1000 nM.

As for `CN(C)c1ncc(Cl)c2c(N3CCNCC3)nc(-c3ccncc3)nc12` [Example 142, 5-chloro-N,N-dimethyl-4-(piperazin-1-yl)-2-(pyridin-4-yl)pyrido[3,4-d]pyrimidin-8-amine], the half-maximal inhibitory concentration (IC50) was 1000 to 10000 nM.

For the molecule `C=C(C)c1cncc2nc(-c3ccncc3)nc(N3CCNCC3)c12` [Example 143, 5-Isopropenyl-4-piperazin-1-yl-2-pyridin-4-yl-pyrido[3,4-d]pyrimidine], the IC50 is under 100 nM.

`COc1cncc2nc(-c3ccncc3)nc(N3CCCCC3)c12` [Example 151, 5-Methoxy-4-piperidin-1-yl-2-pyridin-4-yl-pyrido[3,4-d]pyrimidine]: the IC50 fell in the range of 100 to 1000 nM.

On to `COc1cncc2nc(-c3ccncc3)nc(N3CCC(N)(C(N)=O)C3)c12` (stereo not drawn) [Example 152, 3-Amino-1-(5-methoxy-2-pyridin-4-yl-pyrido[3,4-d]pyrimidin-4-yl)-pyrrolidine-3-carboxylic acid amide], for which the IC50 was in the range of 1000 to 10000 nM.

Turning to `COc1cncc2nc(-c3ccncc3)nc(N3CCC(N)(C(=O)Nc4ccccc4)C3)c12` (stereo not drawn) [Example 153, 3-Amino-1-(5-methoxy-2-pyridin-4-yl-pyrido[3,4-d]pyrimidin-4-yl)-pyrrolidine-3-carboxylic acid phenylamide], the concentration for half-maximal inhibition (IC50) lay within 1000 to 10000 nM.

Regarding `COc1cncc2nc(-c3ccncc3)nc(N3CCC(N)(C(=O)N[C@@H](CCO)c4ccc(Cl)cc4)CC3)c12` [Example 154, 4-Amino-1-(5-methoxy-2-pyridin-4-yl-pyrido[3,4-d]pyrimidin-4-yl)-piperidine-4-carboxylic acid [(S)-1-(4-chloro-phenyl)-3-hydroxy-propyl]-amide], the IC50 lay in the range of 100 to 1000 nM.

`COC(=O)C1CN(c2nc(-c3ccncc3)nc3cncc(OC)c23)CCN1` (stereo not drawn) [Example 155, 4-(5-Methoxy-2-pyridin-4-yl-pyrido[3,4-d]pyrimidin-4-yl)-piperazine-2-carboxylic acid methyl ester]: the IC50 is 1000 to 10000 nM.

Turning to `COc1cncc2nc(-c3ccncc3)nc(N3CCNC(C(=O)Nc4ccccc4)C3)c12` (stereo not drawn) [Example 156, 4-(5-Methoxy-2-pyridin-4-yl-pyrido[3,4-d]pyrimidin-4-yl)-piperazine-2-carboxylic acid phenylamide], the IC50 fell in the range of 1000 to 10000 nM.

Turning to `COc1cncc2nc(-c3ccncc3)nc(N3CCNC(C(=O)NCc4ccccc4)C3)c12` (stereo not drawn) [Example 157, 4-(5-Methoxy-2-pyridin-4-yl-pyrido[3,4-d]pyrimidin-4-yl)-piperazine-2-carboxylic acid benzylamide], the IC50 lay within 1000 to 10000 nM.

As for `COc1cncc2nc(-c3ccncc3)nc(N3CCNC(C(=O)NCCc4ccccc4)C3)c12` (stereo not drawn) [Example 158, 4-(5-Methoxy-2-pyridin-4-yl-pyrido[3,4-d]pyrimidin-4-yl)-piperazine-2-carboxylic acid phenethyl-amide], the IC50 fell in the range of 1000 to 10000 nM.

For `CCCc1nccc2c(N3CCNCC3)nc(-c3ccncc3)nc12` [Example 159, 4-piperazin-1-yl-8-propyl-2-pyridin-4-yl-pyrido[3,4-d]pyrimidine], the IC50 lay in the range of 10000 to 40000 nM.

`Cc1nccc2c(N3CCNCC3)nc(-c3ccncc3)nc12` [Example 160, 8-Methyl-4-piperazin-1-yl-2-pyridin-4-yl-pyrido[3,4-d]pyrimidine]: the IC50 was in the range of 10000 to 40000 nM.

On to `COc1cncc2nc(-c3ccnc(Nc4ccccc4)c3)nc(N3CCNCC3)c12` [Example 200, [4-(5-Methoxy-4-piperazin-1-yl-pyrido[3,4-d]pyrimidin-2-yl)-pyridin-2-yl]-phenyl-amine], for which the IC50 was under 100 nM.

`COc1cncc2nc(-c3ccnc(Nc4cnccn4)c3)nc(N3CCNCC3)c12` [Example 201, [4-(5-Methoxy-4-piperazin-1-yl-pyrido[3,4-d]pyrimidin-2-yl)-pyridin-2-yl]-pyrazin-2-yl-amine]: the IC50 was under 100 nM.

`COc1cncc2nc(-c3ccnc(Nc4nc(C(F)(F)F)co4)c3)nc(N3CCNCC3)c12` [Example 202, [4-(5-Methoxy-4-piperazin-1-yl-pyrido[3,4-d]pyrimidin-2-yl)-pyridin-2-yl]-(4-trifluoromethyl-oxazol-2-yl)-amine]: the IC50 was under 100 nM.

On to `COc1cncc2nc(-c3ccnc(Nc4nc(C)c(C)o4)c3)nc(N3CCNCC3)c12` [Example 203, (4,5-Dimethyl-oxazol-2-yl)-[4-(5-methoxy-4-piperazin-1-yl-pyrido[3,4-d]pyrimidin-2-yl)-pyridin-2-yl]-amine], for which the IC50 is under 100 nM.

For the molecule `COc1cncc2nc(-c3ccnc(Nc4nc(C5CC5)cs4)c3)nc(N3CCNCC3)c12` [Example 204, (4-Cyclo-propyl-thiazol-2-yl)-[4-(5-methoxy-4-piperazin-1-yl-pyrido[3,4-d]pyrimidin-2-yl)-pyridin-2-yl]-amine], the IC50 was under 100 nM.
